Converted amounts (≈) assume the structure as drawn.

The term MIC denotes the smallest concentration in the dilution series that meets the test's criterion for growth inhibition.

Experiment [1] relates to Escherichia coli strain ATCC 25922 called "EC10". As to the kind of experiment: Raman spectroscopy analysis of individual bacteria exposed to an antibiotic (method of the invention), strain EC10. It counts as cell-based. As for the experimental part: The retained conditioning device is constituted of two fluidic chambers and two antibiotic concentrations are tested: c0: “Without antibiotic” and “Resistance test”.
Let c1 be the concentration of gentamicin: c1=8 μg/mL, which corresponds to the doubling of the concentration 4 μg/mL corresponding to the clinical breakpoint as defined by the EUCAST. The objective of this test is to determine whether the bacterium is considered as resistant according to the definitions provided by the EUCAST.
A solution containing the bacteria to be tested is used as a test sample. This solution is obtained by suspending 5.10^7 CFU/mL in order to have a concentration potentially encountered in a clinical sample, for example a urine collection. This bacteria solution is brought into contact with the interface I of the device functionalized by adsorbing polyethylenimine (PEI) (generic capture). After a capture time of 10 minutes allowing the bacteria to come into contact with the functionalization, the interface I is washed with a water solution, this optional step allowing to eliminate the surplus of uncaptured bacteria still in solution. The physiological medium retained in this example is constituted of a poorly enriched mixture of Bouillon TSB-T Trypcase Soy broth (for example of the reference 42100 of bioMérieux) and of PBS 10× (for example obtained from the PBS tablets of the reference A9162, 0100 of the brand AppliChem) in a 1:9 ratio. After dividing this physiological medium into two fractions, an amount of gentamicin (for example of the reference G1397-10ML of Sigma-Aldrich) is added respectively to each of these fractions, allowing to obtain a different concentration of gentamicin c0 or c1. The solutions of concentrations c0 and c1 produced accordingly are respectively introduced into the chambers C0 or C1. The bacteria captured directly from the sample on the surface I are thus exposed, in a suitable medium, to a different antibiotic concentration depending on the chamber in which they are present.
The device is then heated in order to reach a temperature of 37° C. for two hours and then placed in measurement position on the micro-spectrometer. The marking of the captured bacteria is carried out by an automatic procedure based on image analysis, by a conventional procedure for detecting particles, acquired by means of the micro-spectrometer camera and a suitable light source. This marking allows acquiring automatically a series of Raman spectra (S0 and S1, respectively) acquired on individual bacteria present in each chamber C0 and C1. The number of spectra to be acquired for constituting a dataset depends on the level of requirement on the performances of the tests to be carried out. […]

The subject of the next experiment is E. coli. Particulars: cited from earlier work.
Experiment [2] deals with Escherichia coli strain ATCC 25922. The conditions noted are these: quality control range; cited from earlier work.

Regarding gentamicin, the “sensitivity phenotype according to the invention” value in experiment [1] (Raman test at 8 μg/mL) was “sensitive”. The “percentage of test samples classified as "ATB effect"” value in experiment [1] (gentamicin 8 μg/mL, 2 hours at 37° C., N=5 spectra per sample, M=294, SVM classifier) stood at 97.1%. Moreover, in the experiment on E. coli, the “typical MIC, or epidemiological cut-off of the species” value is 2 μg/mL.
Consider `CC1(C)S[C@@H]2[C@H](NC(=O)[C@H](N)c3ccc(O)cc3)C(=O)N2[C@H]1C(=O)O` [amoxicillin], for which the MIC in experiment [1] (Escherichia coli, ATCC25922, Raman, 2 hours at 37° C. incubation, read-out: MIC assigned by the method of the invention) lay within 4 to 8 µg/mL (≈ 10.9 to 21.9 µM). Further, in experiment [2], the “EUCAST range of MIC variations (acceptable variation range)” value is 2 to 8 µg/mL.

These data come from patent publication US10704075B2, “Method for determining the reaction of a microorganism to its exposure to a chemical compound” (bioMérieux, priority 2015, dated 2020).
